Results taken from PMC10466331, “Fluorescence polarisation activity-based protein profiling for the identification of deoxynojirimycin-type inhibitors selective for lysosomal retaining alpha- and beta-glucosidases” (Chemical Science, 2023).
Like-named read-outs stand apart in the source and are kept apart here.

Assays:
Assay type in all cases: biochemical
[1] = molecular target: T1, recombinant human GAA (rhGAA, Myozyme) (Homo sapiens, UniProt P10253); assay: competitive FluoPol-ABPP assay on rhGAA with TAMRA-ABP II; details: for GAA FP% (residual FP-signal): library screen, 5 μM inhibitor, 25 nM ABP II;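 for all read-outs here: fluorescence polarization read at 540 nm excitation and 590 nm emission, background-corrected, normalized to uninhibited probe labelling as 100% and excess cyclosulfate as 0%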
T1 construct: purchased Genzyme

[2] = molecular target: T2, human recombinant lysosomal α-glucosidase GAA (Myozyme) (Homo sapiens, UniProt P10253); assay: fluorogenic substrate (4MU-α-D-glucopyranoside) assay on rhGAA
T2 construct: purchased Genzyme

[3] = molecular target: T3, ER α-glucosidase GANAB (from Pompe disease Fibroblast lysates) (Homo sapiens, UniProt Q14697); assay: fluorogenic substrate (4MU-α-D-glucopyranoside) assay on GANAB in Pompe fibroblast homogenates;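 note: inhibitor preincubated 30 min at 37 °C with homogenate, then GANAB activity read after 2 h with 3.0 mM fluorogenic substrate in McIlvaine buffer containing 0.1% BSA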
T3 construct: Cellular homogenates of Pompe fibroblasts (1 mg mL^−1) were used as protein source for GANAB; endogenous in cells; host or cells: Pompe disease fibroblasts (homogenate)
T3 sequence (Q14697 29-944): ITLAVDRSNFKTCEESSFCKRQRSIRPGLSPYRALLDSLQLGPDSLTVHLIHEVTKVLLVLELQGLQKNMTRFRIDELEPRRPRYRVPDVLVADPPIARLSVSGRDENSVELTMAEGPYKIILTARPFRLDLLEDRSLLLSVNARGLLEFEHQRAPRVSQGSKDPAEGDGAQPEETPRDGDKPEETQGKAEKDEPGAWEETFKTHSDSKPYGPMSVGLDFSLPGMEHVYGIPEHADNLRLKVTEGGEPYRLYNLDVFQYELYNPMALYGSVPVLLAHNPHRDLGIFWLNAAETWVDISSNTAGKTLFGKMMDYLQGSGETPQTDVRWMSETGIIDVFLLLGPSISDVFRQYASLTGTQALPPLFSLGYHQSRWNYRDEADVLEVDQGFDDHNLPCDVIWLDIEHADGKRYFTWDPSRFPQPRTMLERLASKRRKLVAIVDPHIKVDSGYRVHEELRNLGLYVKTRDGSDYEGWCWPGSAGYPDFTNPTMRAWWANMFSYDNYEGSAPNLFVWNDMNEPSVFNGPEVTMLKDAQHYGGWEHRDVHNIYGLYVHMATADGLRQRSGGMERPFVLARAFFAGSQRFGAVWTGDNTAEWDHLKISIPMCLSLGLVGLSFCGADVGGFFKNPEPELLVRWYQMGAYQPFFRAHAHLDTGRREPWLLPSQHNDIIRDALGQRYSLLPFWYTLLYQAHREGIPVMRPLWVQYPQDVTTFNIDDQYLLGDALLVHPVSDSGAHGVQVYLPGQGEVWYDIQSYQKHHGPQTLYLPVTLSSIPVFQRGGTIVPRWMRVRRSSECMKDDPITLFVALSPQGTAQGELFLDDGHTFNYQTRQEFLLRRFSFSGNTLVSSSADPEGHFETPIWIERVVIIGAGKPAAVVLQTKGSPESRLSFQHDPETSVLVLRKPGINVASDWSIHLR
T3 sequence (P14314 15-528 partner): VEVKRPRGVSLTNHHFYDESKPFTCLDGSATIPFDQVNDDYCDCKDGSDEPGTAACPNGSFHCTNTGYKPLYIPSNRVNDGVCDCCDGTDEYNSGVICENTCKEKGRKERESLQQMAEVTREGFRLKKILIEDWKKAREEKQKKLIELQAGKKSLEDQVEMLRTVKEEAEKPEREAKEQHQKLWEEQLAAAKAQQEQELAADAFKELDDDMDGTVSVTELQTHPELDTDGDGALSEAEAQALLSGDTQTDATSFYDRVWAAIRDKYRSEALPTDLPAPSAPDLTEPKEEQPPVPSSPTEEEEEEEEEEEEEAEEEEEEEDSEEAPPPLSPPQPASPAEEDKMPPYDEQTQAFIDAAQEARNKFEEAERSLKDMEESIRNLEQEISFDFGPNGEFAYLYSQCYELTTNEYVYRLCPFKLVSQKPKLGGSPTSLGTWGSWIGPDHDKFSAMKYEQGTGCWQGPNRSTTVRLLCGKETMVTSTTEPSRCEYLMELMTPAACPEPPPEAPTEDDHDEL

[4] = Table S2, 4-MU alpha glucoside substrate, read-out: IC50 on rhGAA
[5] = Table S2, 4-MU alpha glucoside substrate, read-out: IC50 on GANAB
[6] = 4MU-α-glucoside substrate, pH 7.0, mean ± SD, 3 technical replicates, read-out: IC50 GANAB

| SMILES | GAA FP% (residual FP-signal) [1] | IC50 [2, 4] | IC50 [3, 5] | other results |
| --- | --- | --- | --- | --- |
| OC[C@H]1NC[C@H](O)[C@@H](O)[C@H]1O [#ID 154] | 2.4% | – | – | – |
| CCCCCOCCCCCN1C[C@H](O)[C@@H](O)[C@H](O)[C@H]1CO [#ID 20] | – | – | – | IC50 ([2]; Table S2, 4-MU alpha glucoside substrate, listed as 20, read-out: IC50 on rhGAA): 330 nM; GAA FP% (residual FP-signal) ([1]; listed as 20): 17%; IC50 ([3]; Table S2, 4-MU alpha glucoside substrate, listed as 20, read-out: IC50 on GANAB): 19000 nM |
| OC[C@@H]1[C@@H](O)[C@H](O)[C@@H](O)CN1CCCCCOCc1ccc(-c2ccccc2)cc1 [Compound 6] | – | 1200 nM | 8300 nM | IC50 ([2]; 4MU-α-glucoside substrate, pH 4.0, mean ± SD, 3 technical replicates, read-out: IC50 GAA): 1180 ± 310 nM; GAA FP% (residual FP-signal) ([1]; listed as 62): 3.8%; IC50 [3, 6]: 8290 ± 170 nM |
| CCCCOCCCCCN1C[C@H](O)[C@@H](O)[C@H](O)[C@H]1CO [#ID 19] | – | – | – | IC50 ([2]; Table S2, 4-MU alpha glucoside substrate, listed as 19, read-out: IC50 on rhGAA): 350 nM; GAA FP% (residual FP-signal) ([1]; listed as 19): 28%; IC50 ([3]; Table S2, 4-MU alpha glucoside substrate, listed as 19, read-out: IC50 on GANAB): 3600 nM |
| CCCCCCCOCCCCCN1C[C@H](O)[C@@H](O)[C@H](O)[C@H]1CO [#ID 276] | – | – | – | IC50 ([2]; Table S2, 4-MU alpha glucoside substrate, listed as 276, read-out: IC50 on rhGAA): 72 nM; GAA FP% (residual FP-signal) ([1]; listed as 276): 0.6%; IC50 ([3]; Table S2, 4-MU alpha glucoside substrate, listed as 276, read-out: IC50 on GANAB): 1810 nM |
| CCCCN1C[C@H](O)[C@@H](O)[C@@H](O)[C@H]1CO [#ID 153] | 14% | 3600 nM | 19000 nM | – |
| OC[C@@H]1[C@@H](O)[C@H](O)[C@@H](O)CN1CCCCCOCc1ccc(-c2cc(C(F)(F)F)cc(C(F)(F)F)c2)cc1 [#ID 308] | 1.5% | 2400 nM | 14000 nM | – |
| OC[C@@H]1[C@H](O)[C@H](O)[C@@H](O)CN1CCCCCOCC12CC3CC(CC(C3)C1)C2 [#ID 150] | 15% | – | 12000 nM | – |
| CCCCCCN1C[C@H](O)[C@@H](O)[C@H](O)[C@H]1CO [#ID 293] | – | – | – | IC50 ([2]; Table S2, 4-MU alpha glucoside substrate, listed as 293, read-out: IC50 on rhGAA): 1300 nM; GAA FP% (residual FP-signal) ([1]; listed as 293): 17%; IC50 ([3]; Table S2, 4-MU alpha glucoside substrate, listed as 293, read-out: IC50 on GANAB): 14000 nM |
| OC[C@@H]1[C@@H](O)[C@H](O)[C@@H](O)CN1CCCCCOCC12CC3CC(CC(C3)C1)C2 [Compound 13] | 8.9% | – | 5400 nM | IC50 [3, 6]: 5360 ± 570 nM |
| CCCCCCN1C[C@H](O)[C@@H](O)[C@H](O)[C@H]1CO [#ID 29] | – | – | – | IC50 ([2]; Table S2, 4-MU alpha glucoside substrate, listed as 29, read-out: IC50 on rhGAA): 1500 nM; GAA FP% (residual FP-signal) ([1]; listed as 29): 49% |
| O=S1(=O)O[C@@H]2[C@H](O)[C@@H](O)[C@H](O)[C@@H](CO)[C@@H]2O1 [Compound 12, 1,6-epi-cyclophellitol cyclosulfate, reference compound] | – | – | – | IC50 ([1]; competitive FluoPol-ABPP, rhGAA 80 nM, ABP II 80 nM, pH 5.0, read-out: apparent IC50 (GAA)): 33 nM |
| CCCCCN1C[C@H](O)[C@@H](O)[C@H](O)[C@H]1CO [#ID 297] | 12% | 1700 nM | – | – |
| OC[C@@H]1[C@H](O)[C@@H](O)[C@H](O)CN1CCCCCOCc1ccc(-c2ccccc2)cc1 [#ID 122] | 35% | 1300 nM | – | – |
| CCCCOCCOCCN1C[C@H](O)[C@@H](O)[C@H](O)[C@H]1CO [#ID 200] | 46% | 3900 nM | – | – |

Second part, led by results:

| GAA FP% (residual FP-signal) [1] | IC50 [2, 4] | IC50 [3, 5] | SMILES | other results |
| --- | --- | --- | --- | --- |
| 6.8% | 490 nM | 2500 nM | CC(C)=CCC/C(C)=C/CC/C(C)=C/COCCCCCN1C[C@H](O)[C@@H](O)[C@H](O)[C@H]1CO [#ID 90] | – |
| 3.6% | 37 nM | 1600 nM | OC[C@@H]1[C@@H](O)[C@H](O)[C@@H](O)CN1CCCCCOCc1ccc(-c2ccccc2)c(F)c1 [#ID 37] | – |
| 0.6% | 85 nM | 1700 nM | OC[C@@H]1[C@@H](O)[C@H](O)[C@@H](O)CN1CCCCCOCc1ccc(-c2cccnc2)cc1 [#ID 318] | – |
| 0.6% | 37 nM | 1200 nM | OC[C@@H]1[C@@H](O)[C@H](O)[C@@H](O)CN1CCCCCOCc1ccc(-c2ccc3c(c2)OCCCO3)cc1 [#ID 304] | – |
| 0.1% | 20 nM | 1600 nM | Cc1cccc(-c2ccc(COCCCCCN3C[C@H](O)[C@@H](O)[C@H](O)[C@H]3CO)cc2)c1 [#ID 302] | – |
| 0.9% | 24 nM | 1000 nM | OC[C@@H]1[C@@H](O)[C@H](O)[C@@H](O)CN1CCCCCOCc1ccc(-c2cccc(F)c2)cc1 [#ID 312] | – |
| 1.7% | 93 nM | 150 nM | OC[C@@H]1[C@@H](O)[C@H](O)[C@@H](O)CN1CCCCCOCc1ccc(-c2ccc(Cl)cc2)cc1 [#ID 314] | – |
| 0.9% | 43 nM | 1400 nM | OC[C@@H]1[C@@H](O)[C@H](O)[C@@H](O)CN1CCCCCOCc1ccc(-c2ccc(F)cc2)cc1 [#ID 311] | – |
| 0.8% | 80 nM | 1700 nM | OC[C@@H]1[C@@H](O)[C@H](O)[C@@H](O)CN1CCCCCOCc1ccc(-c2ccc(F)nc2)cc1 [#ID 322] | – |
| 0.9% | 100 nM | 620 nM | OC[C@@H]1[C@@H](O)[C@H](O)[C@@H](O)CN1CCCCCOCc1ccccc1-c1ccccc1 [#ID 339] | – |
| 35% | 910 nM | 60000 nM | CCCCCCCN1C[C@H](O)[C@@H](O)[C@H](O)[C@H]1CO [#ID 31] | – |
| 0.9% | 320 nM | 8800 nM | CC(C)=CCC/C(C)=C/CC/C(C)=C/CN1C[C@H](O)[C@@H](O)[C@H](O)[C@H]1CO [#ID 16] | – |
| 2.9% | 18 nM | 480 nM | OC[C@@H]1[C@@H](O)[C@H](O)[C@@H](O)CN1CCCCCOCc1ccc(-c2ccccc2)cc1C(F)(F)F [#ID 118] | – |
| 4.1% | 430 nM | 1600 nM | OC[C@@H]1[C@@H](O)[C@H](O)[C@@H](O)CN1CCCCCOCCC12CC3CC(CC(C3)C1)C2 [#ID 170] | – |
| 13% | 100 nM | 4100 nM | CCCCCCCCOCCCCCN1C[C@H](O)[C@@H](O)[C@H](O)[C@H]1CO [#ID 25] | – |
| 1.5% | 58 nM | 370 nM | C[C@@H](OCCCCCN1C[C@H](O)[C@@H](O)[C@H](O)[C@H]1CO)c1ccc(-c2ccccc2)cc1 [#ID 345] | – |
| 1.1% | 89 nM | 1300 nM | OC[C@@H]1[C@@H](O)[C@H](O)[C@@H](O)CN1CCCCCOCc1ccc(-c2ccncc2)cc1 [#ID 316] | – |
| 23% | 450 nM | – | OC[C@H]1N[C@H](C/C=C/CCOCC23CC4CC(CC(C4)C2)C3)[C@H](O)[C@@H](O)[C@@H]1O [#ID 159] | – |
